Test results from paper PMC7822874, “Chemoprotective antimalarials identified through quantitative high-throughput screening of Plasmodium blood and liver stage parasites” (Scientific Reports, 2021).
Like-named read-outs stand apart in the source and are kept apart here.

Assays:
HepG2 = conditions: human, hepg2 cells, 48 h
in vitro [1] = conditions: human, hepg2 cells
[2] = tested on: P. falciparum Dd2 (clone B2) asexual blood stage parasites; assay: P. falciparum Dd2 asexual blood stage SYBR Green-I 72 h proliferation assay (qHTS); format: cell-based, Plasmodium falciparum; conditions: Plasmodium falciparum, DD2, Dd2 parental; Hill fit, averaged from three independent replicates; top concentration 29 µM; read-out: Average AC50 (Log[M]), Dd2 (converted)
[3] = tested on: P. falciparum Dd2 Cytb G131S; assay: SYBR Green ABS proliferation assay, NCGC00374598 selected clone C11; format: cell-based, Plasmodium falciparum; conditions: Plasmodium falciparum
Method: (§1) As resistance selection studies implicated the parasite cytochrome bc1 complex in mediating reduced parasite susceptibility to both NCGC00473217 and NCGC00374598, we leveraged these drug-selected parasites to test for altered drug response to a panel of antimalarial compounds.
(§2) The P. falciparum parasite Dd2 line was cultured in vitro using standard conditions. […] Tissue culture flasks and assay plates were incubated at 37 °C under a gas mixture of 5% CO2, 5% O2 and 90% N2. […] Significant differences were assessed using two-sided Student’s t-tests. All HTS assays were stopped and read at 72 h. Percent response values represent relative growth as judged by SYBR Green-I fluorescence intensity values normalized to controls.
(§3) Fresh uninfected RBCs (0.5% hematocrit) were added on day 7 and media was changed every other day. […] Resistant parasites were maintained under drug media at a volume of 50 mL until a high parasitemia (> 5%) was achieved. Aliquots of the bulk resistant cultures were frozen in cryovials before cloning by limiting dilution in 96-well plates (seeded at 0.25 or 0.5 parasites/well)[70]. After 3 weeks of cloning, we screened for positive wells by flow cytometry with SYBR Green-stained cells. […] Parasites were harvested by saponin lysis at the trophozoite stage and genomic DNA was extracted using the QIAamp DNA Blood Midi Kit (Qiagen, Germantown, MD)[71].

[4] = tested on: P. falciparum Dd2 Cytb V259L; assay: SYBR Green ABS proliferation assay, NCGC00473217 selected clone F06; format: cell-based, Plasmodium falciparum; conditions: Plasmodium falciparum
Method: as §1, §2, §3

[5] = tested on: P. berghei-ANKA-GFP-LucCON liver stage parasites in HepG2-A16-CD81EGFP cells; assay: P. berghei liver stage Pb-Luc assay, Method 1 (UCSD, 1536-well); format: cell-based, Plasmodium berghei; conditions: Plasmodium berghei; for activity at 1 µM / activity at 3 µM: 48 h, average of 2 wells, 1536-well plate; for activity at 1 µM: nominal 1 uM (10 mM stock), […] for 15 mM, 1.2 uM for 12 mM, 2 uM for 20 mM stock; for activity at 3 µM: nominal 3 uM (10 mM stock), 4.5 uM for 15 mM, 3.6 uM for 12 mM, 6 uM for 20 mM stock; for AC50: Method 1
[6] = tested on: Plasmodium falciparum Dd2 asexual blood stage parasites; assay: microbe, parasite or virus in culture; set-up: species or system Plasmodium falciparum Dd2 in human erythrocytes; single determination (one 11-point concentration-response curve); conditions: Plasmodium falciparum, DD2, Erythrocyte, 72 h; read-out: AC50
HepG2-A16-CD81EGFP cells = conditions: average of 2 wells, repeat 2; for HepG2 viability signal, 1 uM, repeat 2: nominal 1 uM (10 mM stock), […] for 15 mM, 1.2 uM for 12 mM, 2 uM for 20 mM stock; for HepG2 viability signal, 3 uM, repeat 2: nominal 3 uM (10 mM stock), 4.5 uM for 15 mM, 3.6 uM for 12 mM, 6 uM for 20 mM stock
in vitro [7] = conditions: human, HepG2-A16-CD81EGFP cells, uninfected
[8] = DD2, […], averaged from three independent replicates, top concentration 29 µM, read-out: Average AC50 (Log[M]), NCGC00374598 clone C11 (Cytb G131S) (converted)
[9] = DD2, […], averaged from three independent replicates, top concentration 29 µM, read-out: Average AC50 (Log[M]), NCGC00473217 clone F06 (Cytb V259L) (converted)
[10] = repeat 1, read-out: Pb-Luc signal, 1 uM, repeat 1
[11] = repeat 2, read-out: Pb-Luc signal, 1 uM, repeat 2
[12] = repeat 3, read-out: Pb-Luc signal, 1 uM, repeat 3
[13] = repeat 1, read-out: Pb-Luc signal, 3 uM, repeat 1
[14] = repeat 2, read-out: Pb-Luc signal, 3 uM, repeat 2
[15] = repeat 3, read-out: Pb-Luc signal, 3 uM, repeat 3

SMILES: Cc1ccc(-c2nn(-c3ccccc3)cc2CSC(=N)N)cc1 [MLS000572993-01]
- Log AC50 (M) (HepG2): -4.3643 M
- CC50 at 48 h (in vitro [1]): 43.2 µM

SMILES: Cc1cc(C)n(-c2nc3ccccc3c(=O)n2OCC#N)n1 [MLS001215162-01]
- Log AC50 (M) (HepG2): -4.9143 M
- CC50 at 48 h (in vitro [1]): 12.2 µM

SMILES: CCCN1C(C)=N[S+](=O)([O-])c2cc(NC(=O)c3cccs3)ccc21 [NCGC00522606-01]
- AC50 [2]: 8.93e-06 M
- AC50 [3, 8]: 2e-06 M

SMILES: Fc1ccc(CN2CC[C@H](c3nc4ccc(C(F)(F)F)cc4[nH]3)C2)cc1F [NCGC00396703-01]
- Log AC50 (M) (HepG2): -4.3028 M
- CC50 at 48 h (in vitro [1]): 49.8 µM

SMILES: COc1ccc(C(=O)N2CCC(n3cc(-c4nc(-c5ccccc5)no4)nn3)C2)cc1 (stereo not drawn) [NCGC00455125-01]
- Log AC50 (M) (HepG2): -4.3643 M
- CC50 at 48 h (in vitro [1]): 43.2 µM

SMILES: CCCCCCc1cc2cc(-c3nnc(-c4ccc(C)cc4)o3)c(=O)oc2cc1O [NCGC00098410-01]
- Log AC50 (M) (HepG2): -4.4643 M
- CC50 at 48 h (in vitro [1]): 34.3 µM

SMILES: CCCN1C(CC(C)C)=N[S+](=O)([O-])c2cc(NC(=O)C3CCOCC3)ccc21 [NCGC00521138-01]
- AC50 [3, 8]: 3.99e-06 M
- AC50 [4, 9]: 1.22e-05 M

SMILES: Nc1nc(N)c2c(ccc3[nH]ccc32)n1 [MLS000758537-01]
- Log AC50 (M) (HepG2): -4.9143 M
- CC50 at 48 h (in vitro [1]): 12.2 µM

SMILES: O=C(CC1C(=O)NCCN1Cc1cccc(Oc2ccccc2)c1)NCc1ccco1 (stereo not drawn) [NCGC00439848-01]
- Log AC50 (M) (HepG2): -8.3643 M
- CC50 at 48 h (in vitro [1]): 0.00432 µM

SMILES: O=C(c1n[nH]c2c1CCCC2)N1CCC(n2cc(-c3nc(-c4ccccc4)no3)nn2)CC1 [NCGC00454851-01]
- Log AC50 (M) (HepG2): -4.5143 M
- CC50 at 48 h (in vitro [1]): 30.6 µM

SMILES: Cc1ccccc1Cn1c(CN2CCC(C(=O)NCCN(C)C)CC2)cc2ccccc21 [NCGC00137638-01]
- Log AC50 (M) (HepG2): -4.3643 M
- CC50 at 48 h (in vitro [1]): 43.2 µM

SMILES: Cc1nn(C)c(C)c1CCC(=O)N1CCC(Cc2noc(-c3ccc(F)cc3)n2)C1 (stereo not drawn) [NCGC00443260-01]
- Log AC50 (M) (HepG2): -4.5143 M
- CC50 at 48 h (in vitro [1]): 30.6 µM

SMILES: COc1ccc2cc1Nc1ccc(cc1)C[C@H](NC(=O)CCc1ccccn1)C(=O)N(C)[C@@H](C(=O)NCc1ccccc1)C2 [NCGC00410291-01]
- Log AC50 (M) (HepG2): -4.6143 M
- CC50 at 48 h (in vitro [1]): 24.3 µM

SMILES: CCc1ccc(NC(=O)C2CCN(c3cc(C(F)(F)F)ncn3)CC2)cc1 [NCGC00455558-01]
- Log AC50 (M) (HepG2): -4.4643 M
- CC50 at 48 h (in vitro [1]): 34.3 µM

SMILES: CCCN1C(CC(C)C)=N[S+](=O)([O-])c2cc(N[S+](=O)([O-])c3cc4ccccc4s3)ccc21 [NCGC00521156-01]
- AC50 [2]: 1.26e-06 M
- AC50 [3, 8]: 1e-06 M

SMILES: COc1cccc(-c2noc(CCCc3nc(-c4cccnn4)no3)n2)c1 [NCGC00435845-01]
- Log AC50 (M) (HepG2): -4.5143 M
- CC50 at 48 h (in vitro [1]): 30.6 µM

SMILES: COc1cc(NC(=O)Cn2c(N(C)Cc3ccccc3)nc(C)cc2=O)cc(OC)c1 [NCGC00432301-01]
- Log AC50 (M) (HepG2): -4.3643 M
- CC50 at 48 h (in vitro [1]): 43.2 µM

SMILES: Cc1nc(-c2ccc(Cl)cc2)sc1CCNC(=O)c1ccco1 [NCGC00131874-01]
- Log AC50 (M) (HepG2): -5.1643 M
- CC50 at 48 h (in vitro [1]): 6.85 µM

SMILES: O=C(Nc1cccc(C(F)(F)F)c1)C1CCN([S+](=O)([O-])c2cccc3nsnc23)CC1 [NCGC00108239-01]
- Log AC50 (M) (HepG2): -4.3643 M
- CC50 at 48 h (in vitro [1]): 43.2 µM

SMILES: CCCN1C(CC(C)C)=N[S+](=O)([O-])c2cc(N[S+](=O)([O-])c3ccccc3)ccc21 [NCGC00521146-01]
- AC50 [2]: 7.96e-06 M
- AC50 [3, 8]: 7.1e-06 M

SMILES: CCCN1C(CC(C)C)=N[S+](=O)([O-])c2cc(N[S+](=O)([O-])c3ccccc3C)ccc21 [NCGC00521140-01]
- AC50 [4, 9]: 1e-05 M

SMILES: Cc1nn2c(c1-c1ccccc1Oc1ccccc1)N(Cc1ccccc1O)CCC2 [NCGC00420455-01]
- activity at 1 µM [5, 10]: 75.6%
- activity at 1 µM [5, 11]: 75%
- activity at 1 µM [5, 12]: 78.3%
- activity at 3 µM [5, 13]: 1.18%
- activity at 3 µM [5, 14]: 4.89%
- activity at 3 µM [5, 15]: 23.7%
- AC50 ([5]; Hill fit, 50% of maximum activity response, read-out: AC50): 1.41 µM
- AC50 ([5]; log10 of molar AC50 from Hill fit, read-out: Log AC50 (converted)): 1.41 µM
- AC50 [6]: 4.85 µM
- HepG2 viability signal, 1 uM, repeat 2 (HepG2-A16-CD81EGFP cells): 99.80%
- HepG2 viability signal, 3 uM, repeat 2 (HepG2-A16-CD81EGFP cells): 116.91%
- viability at 48 h, 1 µM (in vitro [7]): 104%
- viability at 48 h, 3 µM (in vitro [7]): 115%
- CC50 at 48 h (in vitro [1]): > 57 µM

SMILES: COc1ccc(N2CCN(c3cc(C4CC(N)C4)nc(N)n3)CC2(C)C)cc1 (stereo not drawn) [NCGC00422579-01]
- activity at 1 µM [5, 10]: 82.6%
- activity at 1 µM [5, 11]: 91.8%
- activity at 1 µM [5, 12]: 99.3%
- activity at 3 µM [5, 13]: 76.6%
- activity at 3 µM [5, 14]: 88.5%
- activity at 3 µM [5, 15]: 81.6%
- AC50 [6]: 2.99 µM
- HepG2 viability signal, 1 uM, repeat 2 (HepG2-A16-CD81EGFP cells): 102.33%
- HepG2 viability signal, 3 uM, repeat 2 (HepG2-A16-CD81EGFP cells): 97.69%
- viability at 48 h, 1 µM (in vitro [7]): 103%
- viability at 48 h, 3 µM (in vitro [7]): 102%
- CC50 at 48 h (in vitro [1]): > 57 µM

SMILES: N[S+](=O)([O-])c1cc2c(cc1Cl)N=CN[S+]2(=O)[O-] [NCGC00015242-14]
- AC50 [2]: 2e-06 M
- AC50 [3, 8]: 7.1e-07 M

SMILES: CN1C(CCl)Nc2cc(Cl)c([S+](N)(=O)[O-])cc2[S+]1(=O)[O-] (stereo not drawn) [NCGC00167446-03]
- AC50 [2]: 2.82e-08 M
- AC50 [3, 8]: 3.17e-08 M
- AC50 [4, 9]: 3.17e-08 M

SMILES: CCCN1C(CC(C)C)=N[S+](=O)([O-])c2cc(N[S+](=O)([O-])c3ccc(Cl)s3)ccc21 [NCGC00521874-01]
- AC50 [2]: 1.42e-06 M
- AC50 [3, 8]: 8.93e-07 M
- AC50 [4, 9]: 7.1e-07 M

SMILES: CCCN1C(CC(C)C)=N[S+](=O)([O-])c2cc(NC(=O)c3cccc(C#N)c3)ccc21 [NCGC00531772-01]
- AC50 ([3]; DD2, cytochrome b mutant line, second value triple, c6, […], read-out: log AC50, mean (converted)): 2.67e-07 M
- AC50 ([4]; DD2, cytochrome b mutant line, third value triple, c9, […], read-out: log AC50, mean (converted)): 8.93e-07 M

SMILES: CCCN1C(C)=N[S+](=O)([O-])c2cc(NC(=O)c3ccc(F)cc3)ccc21 [NCGC00522607-01]
- AC50 [2]: 1.12e-06 M
- AC50 [3, 8]: 1.26e-06 M

SMILES: CCCN1C(CC(C)C)=N[S+](=O)([O-])c2cc(NC(=O)C(=O)OCC)ccc21 [NCGC00521135-01]
- AC50 [2]: 1.59e-05 M
- AC50 [3, 8]: 7.96e-06 M
